This note sets out measurements from US12486234B2, “PAPD5 inhibitors and methods of use thereof” (Children's Medical Center Corporation, priority 2019, dated 2025).

Molecules are shown by their SMILES.

Experiment [1] has as its target T1, PAPD5 (Homo sapiens, UniProt Q8NDF8).
T1 construct: made in house
The experiment can be described thus: RNA oligo-adenylation (oligo-extension) inhibition assay with recombinant PAPD5. On the set-up: key: minimal activity (0); range from minimal activity (0) to that of compound 1 (+++); range from minimal activity (0) to that of compound 1 (+++); that of compound 1 (+++). The class given is biochemical. The following applies: qualitative measure of RNA oligo-extension inhibition, relative to compound 1. On the procedure: An in vitro RNA polyadenylation assay using recombinant PAPD5, ATP and an oligonucleotide substrate utilized the following phenomenon: ATP utilization by PAPD5 reads out as a decreased luminescence signal produced by luciferase (KinaseGlo, Promega, Madison, WI).
(§1) Qualitative measure of RNA oligo-extension inhibition for the tested compounds, expressed as range from minimal activity (0) to that of compound 1 (+++), and results of a DSF binding assay (shown as shift in temperature at 100 μM of the compound) are shown in the Table 2 below.

For experiment [2], the target named is T1, PAPD5. The experiment can be described thus: DSF binding assay (shift in temperature). The following applies: shift in temperature at 100 μM of the compound. On the procedure:
as §1

T1 sequence (Q8NDF8 68-698 isoform Q8NDF8-5 limits assumed): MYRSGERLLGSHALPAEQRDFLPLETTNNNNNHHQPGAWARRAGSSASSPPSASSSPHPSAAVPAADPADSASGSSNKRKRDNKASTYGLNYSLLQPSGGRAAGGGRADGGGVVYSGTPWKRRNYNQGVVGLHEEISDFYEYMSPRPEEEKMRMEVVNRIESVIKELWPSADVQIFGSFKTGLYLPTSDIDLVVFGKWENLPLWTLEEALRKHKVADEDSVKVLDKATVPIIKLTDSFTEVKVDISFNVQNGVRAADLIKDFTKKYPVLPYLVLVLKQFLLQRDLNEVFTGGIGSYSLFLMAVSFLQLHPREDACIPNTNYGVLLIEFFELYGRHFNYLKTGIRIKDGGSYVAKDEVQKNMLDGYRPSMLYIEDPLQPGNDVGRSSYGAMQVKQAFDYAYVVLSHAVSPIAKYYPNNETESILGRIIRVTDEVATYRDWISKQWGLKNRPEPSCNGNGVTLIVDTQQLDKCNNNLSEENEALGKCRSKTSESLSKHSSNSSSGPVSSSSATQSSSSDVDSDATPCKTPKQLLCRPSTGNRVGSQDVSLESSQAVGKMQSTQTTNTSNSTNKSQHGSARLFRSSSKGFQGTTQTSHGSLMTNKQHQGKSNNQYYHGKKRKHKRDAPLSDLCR

For the compound `CCOC(=O)c1cnc2ccc(OC(F)(F)F)cc2c1Nc1ccccc1-c1nn[nH]n1` [Compound 10A, ethyl 4-[2-(2H-tetrazol-5-yl)anilino]-6-(trifluoromethoxy)quinoline-3-carboxylate], the “Inhibition of PAPD5 RNA oligo adenylation” value (“Inhibition” below) on PAPD5 [1] is “+”. Further, on PAPD5 [2], the shift in melting temperature (ΔTm) at 100 µM amounted to 1 °C.
On to `COCCCOc1cc2ncc(C(=O)N3CCOCC3)c(Nc3ccccc3C(=O)O)c2cc1OC` [Compound 53A, 2-[[6-methoxy-7-(3-methoxypropoxy)-3-(morpholine-4-carbonyl)-4-quinolyl]amino]benzoic acid], for which the “Inhibition” value at PAPD5 [1] is reported as “+”. Further, the shift in melting temperature (ΔTm) at 100 µM on PAPD5 [2] is 5.2 °C.
Turning to `O=C(O)c1ccccc1Nc1c(S(=O)(=O)N2CCOCC2)cnc2ccc(Br)cc12` [Compound 70A, 2-[(6-bromo-3-morpholinosulfonyl-4-quinolyl)amino]benzoic acid], the “Inhibition” value at PAPD5 [1] is listed as “+++”. Besides, the ΔTm at 100 µM at PAPD5 [2] was determined as 13.7 °C.
For `O=C(O)c1ccccc1Nc1c(C(=O)N2CCOCC2)cnc2ccc(OC(F)(F)F)cc12` [Compound 13A, 2-[[3-(morpholine-4-carbonyl)-6-(trifluoromethoxy)-4-quinolyl]amino]benzoic acid], in that order: “+” and 5.6 °C.
Regarding `CCOC(=O)c1cnc2ccc(OC(F)(F)F)cc2c1Nc1scnc1C(=O)OCC` [Compound 33A, ethyl 5-[[3-ethoxycarbonyl-6-(trifluoromethoxy)-4-quinolyl]amino]thiazole-4-carboxylate], the “Inhibition” value at PAPD5 [1] was found to be 0. The thermal shift (ΔTm) at 100 µM at PAPD5 [2] worked out at 0.7 °C.
The like results for `CCOC(=O)c1cnc2ccc(-n3ccc4cc(O)ccc43)cc2c1Nc1ccccc1C(=O)O` [Compound 29A, 2-[[3-ethoxycarbonyl-6-(5-hydroxyindol-1-yl)-4-quinolyl]amino]benzoic acid] were, in that order, “+++” and 4.9 °C.
For the compound `N#Cc1cnc2ccc(-c3cccc4ncccc34)cc2c1Nc1ccccc1C(=O)O` [Compound 54A, 2-[[3-cyano-6-(5-quinolyl)-4-quinolyl]amino]benzoic acid], the “Inhibition” value at PAPD5 [1] was “+++”. Also, at PAPD5 [2], the “ΔTm 100 μM” value is “fluorescent”.
For the compound `CCOC(=O)c1cnc2ccc(OC(F)(F)F)cc2c1Nc1ccccc1C(=O)O` [Compound 32A, 2-[[3-ethoxycarbonyl-6-(trifluoromethoxy)-4-quinolyl]amino]benzoic acid], at PAPD5 [1], the “Inhibition” value was “+++”. The ΔTm at 100 µM at PAPD5 [2] is 7.9 °C.
For the compound `CCOC(=O)c1ncn2c1[nH]c(=O)c1cnc3ccc(OC(F)(F)F)cc3c12` [Compound 31A, ethyl 14-oxo-7-(trifluoromethoxy)-17,18,19,20-tetrazatetracycloheptadeca-1(7),2(8),3(9),4(18),5(19),10,12-heptaene-12-carboxylate], on PAPD5 [1], the “Inhibition” value stood at 0. Besides, the thermal shift (ΔTm) at 100 µM on PAPD5 [2] was 1.8 °C.
In the case of `O=C(O)c1ccccc1Nc1c(S(=O)(=O)N2CCOCC2)cnc2ccc(Cl)cc12` [Compound 80A, 2-[(6-chloro-3-morpholinosulfonyl-4-quinolyl)amino]benzoic acid], on PAPD5 [1], the “Inhibition” value was “+++”. Also, the ΔTm at 100 µM on PAPD5 [2] turned out to be 16.4 °C.
`COCCCOc1cc2ncc(-c3ncco3)c(Nc3ccccc3C(=O)O)c2cc1OC` [Compound 58A, 2-[[6-methoxy-7-(3-methoxypropoxy)-3-oxazol-2-yl-4-quinolyl]amino]benzoic acid]: at PAPD5 [1], the “Inhibition” value is on record as “+”. On PAPD5 [2], the ΔTm at 100 µM amounted to 8.5 °C.
